# From ChEMBL document CHEMBL3414440, “Pure enantiomers of benzoylamino-tranylcypromine: LSD1 inhibition, gene modulation in human leukemia cells and effects on clonogenic potential of murine promyelocytic blasts” (Eur J Med Chem, 2015)
# How the values were obtained:
# [1] = molecular target: T1, Amine oxidase [flavin-containing] A (Homo sapiens, UniProt P21397)
# T1 sequence (P21397 whole entry): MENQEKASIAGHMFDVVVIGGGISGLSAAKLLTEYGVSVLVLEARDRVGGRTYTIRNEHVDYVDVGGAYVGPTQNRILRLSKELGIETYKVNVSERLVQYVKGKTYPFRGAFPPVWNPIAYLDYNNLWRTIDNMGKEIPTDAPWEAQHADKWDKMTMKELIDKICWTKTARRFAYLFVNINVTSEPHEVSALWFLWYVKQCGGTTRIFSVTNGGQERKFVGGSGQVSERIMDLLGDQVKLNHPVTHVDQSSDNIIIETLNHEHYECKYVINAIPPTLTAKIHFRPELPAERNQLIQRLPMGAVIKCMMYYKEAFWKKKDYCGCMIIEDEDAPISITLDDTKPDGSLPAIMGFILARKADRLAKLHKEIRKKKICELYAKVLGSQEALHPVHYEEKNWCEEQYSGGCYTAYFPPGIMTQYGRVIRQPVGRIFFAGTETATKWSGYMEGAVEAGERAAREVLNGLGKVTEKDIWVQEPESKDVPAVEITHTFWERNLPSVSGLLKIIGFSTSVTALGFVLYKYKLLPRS
# Description: Inhibition of human recombinant MAOA expressed in Pichia pastoris incubated for 15 mins prior to substrate addition measured after 30 mins by luminescence assay
# [2] = molecular target: T2, Amine oxidase [flavin-containing] B (Homo sapiens, UniProt P27338)
# T2 sequence (P27338 whole entry): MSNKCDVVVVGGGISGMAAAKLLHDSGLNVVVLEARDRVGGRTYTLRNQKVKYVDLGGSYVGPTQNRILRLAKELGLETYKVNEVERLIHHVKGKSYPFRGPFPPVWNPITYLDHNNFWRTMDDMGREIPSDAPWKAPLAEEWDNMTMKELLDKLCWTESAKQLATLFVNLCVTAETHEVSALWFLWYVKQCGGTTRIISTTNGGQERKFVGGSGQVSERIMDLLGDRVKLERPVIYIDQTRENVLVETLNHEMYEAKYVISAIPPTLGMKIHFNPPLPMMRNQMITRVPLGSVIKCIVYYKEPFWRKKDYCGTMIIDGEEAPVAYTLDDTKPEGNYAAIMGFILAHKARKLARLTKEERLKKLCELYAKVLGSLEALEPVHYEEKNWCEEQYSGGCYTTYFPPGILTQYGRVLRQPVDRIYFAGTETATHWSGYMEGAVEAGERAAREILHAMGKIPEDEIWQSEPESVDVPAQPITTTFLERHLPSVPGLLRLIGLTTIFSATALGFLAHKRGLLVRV
# Description: Inhibition of human recombinant MAOB expressed in Pichia pastoris incubated for 15 mins prior to substrate addition measured after 30 mins by luminescence assay
# [3] = cells; details: Mus musculus, Leukemia cell, read-out: INH
# Description: Inhibition of colony formation in mouse acute myeloid Leukemia cell assessed as colony forming unit at 0.25 uM after 7 days relative to control
# [4] = molecular target: T3, MAO-B (amine oxidase [flavin-containing] B) (Homo sapiens, UniProt P27338); assay: Inhibition of human recombinant MAOB expressed in Pichia pastoris at 100 uM incubated for 15 mins prior to substrate addition measured after 30 mins by luminescence assay
# T3 sequence (P27338 whole entry): T2 sequence (P27338 whole entry)
SMILES,IC50 [1] [nM],IC50 [2] [nM],inhibition at […] [3] [%],"inhibition at 0.5 h, 100 µM [4] [%]"
N[C@H]1C[C@H]1c1cccc(NC(=O)c2ccccc2)c1,70,80100,–,–
N[C@@H]1C[C@H]1c1cccc(NC(=O)c2ccccc2)c1,1540,84700,–,–
N[C@H]1C[C@@H]1c1ccc(NC(=O)c2ccccc2)cc1,–,–,64,–
N[C@@H]1C[C@@H]1c1cccc(NC(=O)c2ccccc2)c1,650,–,–,34
N[C@@H]1C[C@@H]1c1ccc(NC(=O)c2ccccc2)cc1,–,–,72,–
N[C@@H]1C[C@H]1c1ccc(NC(=O)c2ccccc2)cc1,–,–,83.4,–
N[C@H]1C[C@@H]1c1cccc(NC(=O)c2ccccc2)c1,1370,–,–,29
N[C@H]1C[C@H]1c1ccc(NC(=O)c2ccccc2)cc1,–,–,83.8,–
